From publication PMC4155488 (Bioorganic & medicinal chemistry letters, 2014)

How the values were obtained:
hPDE4B = conditions: read-out: IC50 against hPDE4B; reported; cited from earlier work
TbrPDEB1 [1] = molecular target: T1, TbrPDEB1 (Trypanosoma brucei, UniProt Q8WQX9); conditions: result in words; cited from earlier work
T1 sequence (Q8WQX9 1-930): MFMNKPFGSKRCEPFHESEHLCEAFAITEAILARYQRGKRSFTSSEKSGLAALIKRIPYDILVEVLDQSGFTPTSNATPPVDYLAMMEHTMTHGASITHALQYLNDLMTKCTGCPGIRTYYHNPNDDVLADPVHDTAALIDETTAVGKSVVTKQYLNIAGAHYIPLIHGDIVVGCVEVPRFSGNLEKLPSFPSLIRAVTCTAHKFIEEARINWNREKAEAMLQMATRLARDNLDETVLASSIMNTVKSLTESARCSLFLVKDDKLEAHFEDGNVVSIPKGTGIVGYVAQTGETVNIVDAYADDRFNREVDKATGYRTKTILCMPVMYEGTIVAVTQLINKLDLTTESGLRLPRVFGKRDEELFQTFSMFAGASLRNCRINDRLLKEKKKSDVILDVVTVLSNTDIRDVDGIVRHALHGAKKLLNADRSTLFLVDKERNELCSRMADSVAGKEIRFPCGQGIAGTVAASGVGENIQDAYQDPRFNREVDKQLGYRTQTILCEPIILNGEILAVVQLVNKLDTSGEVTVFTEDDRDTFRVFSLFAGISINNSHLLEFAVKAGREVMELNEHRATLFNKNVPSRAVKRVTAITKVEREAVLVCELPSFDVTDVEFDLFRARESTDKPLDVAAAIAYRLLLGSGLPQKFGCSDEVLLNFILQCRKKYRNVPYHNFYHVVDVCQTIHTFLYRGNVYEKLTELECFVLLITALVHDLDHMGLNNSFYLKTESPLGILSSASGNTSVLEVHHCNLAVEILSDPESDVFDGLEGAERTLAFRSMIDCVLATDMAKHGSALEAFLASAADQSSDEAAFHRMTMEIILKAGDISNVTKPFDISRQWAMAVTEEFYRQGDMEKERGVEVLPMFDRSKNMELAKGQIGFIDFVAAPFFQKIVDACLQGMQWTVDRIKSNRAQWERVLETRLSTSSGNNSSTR

TbrPDEB1 [2] = molecular target: T1, TbrPDEB1; assay: TbrPDEB1 enzyme inhibition; type: biochemical; conditions: for fold loss in potency (TbrPDEB1): relative to 12b (linker of four methylene groups)
hPDE4 = hPDE4 enzyme inhibition; type: biochemical, human; conditions: read-out: IC50 against hPDE4

In the case of `COc1ccc([C@]2(C#N)CC[C@@H](C(=O)O)CC2)cc1OC1CCCC1` [Compound 1, cilomilast], the IC50 (hPDE4B) is listed as 84 nM.

In the case of `O=C(Nc1c(Cl)cncc1Cl)c1ccc(OC(F)F)c(OCC2CC2)c1` [Compound 4, roflumilast], the TbrPDEB1 activity (TbrPDEB1 [1]) is given as “completely inactive”.

In the case of `COc1ccc([C@]2(C#N)CC[C@@H](C(=O)O)CC2)cc1OCCCCCOc1ccccc1` [Compound 12d], the “fold loss in potency (TbrPDEB1)” value (TbrPDEB1 [2]) is reported as ~ 10 fold.

With `COc1ccc([C@]2(C#N)CC[C@@H](C(=O)O)CC2)cc1OCCCCOc1ccccc1` [Compound 12b] the “times more active than 1 against TbrPDEB1” value (TbrPDEB1 [2]; ratio of TbrPDEB1 IC50 versus compound 1) was 17 fold.

In the case of `COc1ccc([C@]2(C#N)CC[C@@H](C(=O)O)CC2)cc1OCCCOc1ccccc1` [Compound 12c], the “fold loss in potency (TbrPDEB1)” value (TbrPDEB1 [2]) is reported as ~ 10 fold.

Work on `COc1ccc([C@]2(C#N)CC[C@@H](C(=O)O)CC2)cc1OCc1ccccc1` [Compound 7] yielded an IC50 (hPDE4) of 540 nM.
